US20230203096A1, “EPHA4 TARGETING COMPOUNDS AND METHODS OF USE THEREOF” (priority 2020, published 2023)
Entries after “also recorded” stand apart in the source; their conditions may differ. Like-named read-outs stand apart in the source and are kept apart here. Square brackets hold non-standard residues; d marks the D form. Peptide text beside a SMILES is read from it. * marks the point of attachment. Cyclohexanoyl(1S,3S-3-NH2) = N[C@H]1CCC[C@H](C(=O)*)C1; Trp(5-OH) = N[C@@H](Cc1c[nH]c2ccc(O)cc12)C(=O)O; NH(4-morpholinophenyl) = c1cc(N2CCOCC2)ccc1N*; Bip = N[C@@H](Cc1ccc(-c2ccccc2)cc1)C(=O)O; hArg = N=C(N)NCCCC[C@H](N)C(=O)O

Key:
Aqueous solubility = assay type: physicochemical
[1] = tested on: mouse motor neurons co-cultured with iAstrocytes derived from sALS patients; experiment: Co-culture of sALS patient derived iAstrocytes and motor neurons (motor neuron survival); assay type: cell-based; details: 10 μM
Description: EphA4 has been directly implicated in the progression of ALS in mice models and in human genetic studies. While the mechanisms for onset and progression of ALS remain largely undetermined, astrocytes have been implicated as significant contributors to motor neuron death in both in familial ALS (fALS), that is driven by inactivating mutations within the superoxide dismutase 1 (SOD1) gene and that account for less than 2% of all ALS cases, (Di Giorgio et al., Nat Neurosci, 10 (5): 608-614, (2007); Nagai et al., Nat Neurosci, 10 (5): 615-622, (2007); Yamanaka et al., Nat Neurosci, 11 (3): 251-253, (2008)) and the more common sporadic form of ALS (sALS). […] Recently, it was shown that astrocytes derived from both patient groups are similarly toxic to motor neurons (Haidet-Phillips et al., Nat Biotechnol, 29 (9): 824-828, (2011)).
Induced Astrocytes were generated by seeding a low quantity of NPCs into astrocyte medium (DMEM media containing 10% FBS and 0.2% N2) for five days. Following differentiation, iAstrocytes were lifted and seeded into a 96 well (10,000 cells per well).
Cells are sorted through a 100 micron tip with sheath pressure of 27. GFP+ motor neurons were seeded in a 96 well plate (10,000 cells per well). Co-cultures were imaged with InCell for up to three days. Motor neurons with neurite outgrowth of greater than 50 um were counted as alive.

EphA2-LBD = EphA2-LBD (Homo sapiens, UniProt P29317); experiment: Isothermal titration calorimetry (ITC) against EphA2-LBD
Description: (§1) Isothermal titration calorimetry (ITC) measurements were performed using the Affinity ITC Autosampler from TA Instruments (New Castle, Del.). The titrations were performed in a reverse fashion by titrating the protein into the ligand solution. […] The injections were made at 200 s or 400 s intervals with a stirring speed of 75 rpm. All the solutions were kept in the autosampler at 4° C. The analysis of the thermodynamics signatures and for dissociation constant determination was performed by the NanoAnalyze software (TA Instruments, New Castle, Del.) and subsequently exported into Microsoft Excel.

EphA3-LBD Chimera = EphA3-LBD Chimera (Homo sapiens, UniProt P54764, C204A/E77D/G52H/I159L/I59G/M164L/M60V/R37K/V157M); experiment: Isothermal titration calorimetry (ITC) against EphA3-LBD chimera; details: listed as 150D4
Description: as §1

[2] = In vivo pharmacokinetics and brain exposure; details: mice; for tissue level at time at 0.5 h / level at 0.5 h / tissue level at time at 24 h / level at 24 h / level at 1 h: mouse; for tissue level at time at 0.5 h / tissue level at time at 24 h: read-out: Amount of compound per mg of wet brain tissue
[3] = molecular target: T1, ^13C^ε-Met-labeled EphA4-LBD (Homo sapiens, UniProt P54764, C204A); experiment: 2D [13C,1H] HSQC NMR chemical shift perturbation of Met resonances; assay type: binding
T1 construct: His tag (N); made in house; host or cells: E. coli Rosetta-Gami B(DE3), pET15b
Description: Peptides were synthesized by using standard solid-phase synthesis protocol, using the BAL resin as anchoring for the C-terminal amines. Isothermal Titration Calorimetry (ITC) measurements were performed in a reverse fashion by titrating the protein into the ligand solution. Solution nuclear magnetic resonance (NMR) experiments were conducted on a 700 MHz Bruker Avance spectrometer equipped with a TCI cryoprobe. […]
2D [^13C,^1H] correlation NMR spectra measured with such protein targets, collected in absence or presence of test ligands can be used to monitor ligand binding and make, albeit qualitative, determinations on possible conformational changes induced by test ligands on the protein target. […] In targeting EphA4, an important aspect regarding the activity of its ligands is whether these agents could be predicted to work as antagonists or agonists.
NMR spectra were acquired on Bruker Avance III 700 MHz spectrometer equipped with a TCI cryoprobe. All NMR data were processed and analyzed using TOPSPIN 3.6.1 (Bruker, Billerica, Mass., USA).
Chemical shift changes (A) in the 2D [^13C, ^1H] spectra were calculated as weight average perturbations observed in the ^1H and ^13C dimensions using the following Equation: […]

EphA4-LBD and ephrinA5 = molecular target: T2, EphA4-LBD and ephrinA5 (Homo sapiens, UniProt P54764, C204A); experiment: ephrinA5 displacement by 2D [13C,1H] correlation NMR; assay type: binding; details: ^1H] correlation spectra
T2 construct: His tag (N); made in house; host or cells: E. coli Rosetta-Gami B(DE3) for EphA4-LBD; ephrin-A5 purchased from Sino Biological US Inc (catalogue number not given)
Description: NMR spectra were acquired on Bruker Avance III 700 MHz spectrometer equipped with a TCI cryoprobe. All NMR data were processed and analyzed using TOPSPIN 3.6.1 (Bruker, Billerica, Mass., USA). 2D-[^13C,^1H]-HSQC experiments were acquired with 20 μM proteins using 8 scans with 2,048 and 256 complex data points in the ^1H and […] dimensions, respectively, at 298 K. For the 150D4 NMR titrations in FIG. 8 2D-[^13C,^1H]-HSQC experiments were acquired using 16 scans per increment, and for ephrinA5 binding studies (FIG. 8) with 10 μM protein, using 32 scans per increment.

[4] = test ligands at 40 μM, EphA4-LDB at 20 μM, Table 8

T1 sequence (P54764 29-209 C204A): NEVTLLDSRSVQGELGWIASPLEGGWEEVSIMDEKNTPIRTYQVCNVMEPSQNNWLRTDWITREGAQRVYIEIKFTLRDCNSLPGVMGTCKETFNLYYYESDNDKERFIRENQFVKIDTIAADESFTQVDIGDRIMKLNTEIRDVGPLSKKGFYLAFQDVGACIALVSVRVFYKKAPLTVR
EphA3-LBD Chimera, sequence (P54764 29-209 R37K/G52H/I59G/M60V/E77D/V157M/I159L/M164L/C204A): as the sequence (P54764 29-209 C204A) above, with R9K, G24H, I31G, M32V, E49D, V129M, I131L, M136L counted along it
EphA2-LBD, sequence (P29317 27-200): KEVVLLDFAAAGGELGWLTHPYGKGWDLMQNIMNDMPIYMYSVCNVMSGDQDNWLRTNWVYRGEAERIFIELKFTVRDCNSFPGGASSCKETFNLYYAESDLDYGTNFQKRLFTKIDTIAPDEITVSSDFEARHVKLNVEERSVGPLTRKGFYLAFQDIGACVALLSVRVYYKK
T2 sequence (P54764 29-209 C204A): as the sequence (P54764 29-209 C204A) above

SMILES: N=C(N)NCCCC[C@H](NC(=O)[C@H](Cc1ccc(-c2ccccc2)cc1)NC(=O)[C@H](Cc1c[nH]c2ccc(O)cc12)NC(=O)[C@H]1CCC[C@H](N)C1)C(=O)NCC(=O)Nc1ccc(N2CCOCC2)cc1 [Compound 8, (1S,3S)—N—((S)-1-(((S)-3-([1,1′-biphenyl]-4-yl)-1-(((S)-6-guanidino-1-((2-((4-morpholinophenyl)amino)-2-oxoethyl)amino)-1-oxohexan-2-yl)amino)-1-oxopropan-2-yl)amino)-3-(5-hydroxy-1H-indol-3-yl)-1-oxopropan-2-yl)-3-aminocyclohexane-1-carboxamide] ({Cyclohexanoyl(1S,3S-3-NH2)}-[Trp(5-OH)][Bip][hArg]G-{NH(4-morpholinophenyl)})
- Aqueous Solubility (Aqueous solubility): >50 mM
- protection of motor neurons from sALS astrocytes-induced death [1]: able to protect mouse motor neurons from iAstrocytes derived from sALS patients
- binding to EphA2 (in words) (EphA2-LBD): limited binding
- binding to EphA3 (in words) (EphA3-LBD Chimera): limited binding; also recorded: markedly reduced affinity
- Total extracted brain compound ([2]; 10 mg/kg IV, 30 min): 205.6 ng
- Total extracted brain compound ([2]; 10 mg/kg IV, 24 hr): 60 ng
- Total extracted brain compound ([2]; 50 mg/Kg IP, 30 min): 185 ng
- Total extracted brain compound ([2]; 50 mg/Kg IP, 24 hr): 34.7 ng
- tissue level at time at 0.5 h ([2]; brain, 10 mg/kg IV, 30 min): 4730 ng/g
- level at 0.5 h ([2]; brain, 10 mg/kg IV, 30 min, read-out: Brain concentration): 189 ng/mL
- tissue level at time at 24 h ([2]; brain, 10 mg/kg IV, 24 hr): 1360 ng/g
- level at 24 h ([2]; brain, 10 mg/kg IV, 24 hr, read-out: Brain concentration): 54 ng/mL
- tissue level at time at 0.5 h ([2]; brain, 50 mg/Kg IP, 30 min): 4600 ng/g
- level at 1 h ([2]; brain, 50 mg/Kg IP, read-out: Brain concentration): 184 ng/mL
- tissue level at time at 24 h ([2]; brain, 50 mg/Kg IP, 24 hr): 1100 ng/g
- level at 24 h ([2]; brain, 50 mg/Kg IP, 24 hr, read-out: Brain concentration): 45.5 ng/mL
- level at 0.5 h ([2]; plasma, 10 mg/kg IV, 30 min, read-out: Plasma drug concentration): 484 ng/mL
- level at 24 h ([2]; plasma, 10 mg/kg IV, 24 hr, read-out: Plasma drug concentration): 14.2 ng/mL
- level at 1 h ([2]; plasma, 50 mg/Kg IP, read-out: Plasma drug concentration): 7740 ng/mL
- level at 24 h ([2]; plasma, 50 mg/Kg IP, 24 hr, read-out: Plasma drug concentration): 45 ng/mL
- chemical shift perturbation of Met 115 (in words) [3]: no significant perturbations
- chemical shift changes of Met 60 and Met 164 (in words) ([3]; FIG. 8B): large chemical shift changes
- Δδ ^13C^ϵ/^1H^ϵ Met 164 ([3]; protein 20 μM, 20 μM of each compound): ++++ (++++ >0.25 ppm)
- koff ([3]; read-out: estimated upper limit for the off rate for the complex koff): < 60 s⁻¹
- Δδ Met 60 [3, 4]: ++ (0.1 ppm < ++ <0.2 ppm)
- Δδ Met 115 [3, 4]: + (0< + <0.1 ppm)
- Δδ Met 164 [3, 4]: ++++ (++++ >0.25 ppm)
- displacement of ephrinA5 binding to EphA4-LBD (EphA4-LBD and ephrinA5): efficiently displaces the binding of ephrinA5
